Results from ChEMBL document CHEMBL1153623, “Synthesis and bioactivity of substituted indan-1-ylideneaminoguanidine derivatives” (Eur J Med Chem, 2009).

Assays:
[1] = biological target: Sodium/hydrogen exchanger 1 (Rattus norvegicus, UniProt P26431); assay: Inhibition of NHE1 in Sprague-Dawley rat platelet-rich plasma by optical swelling assay
[2] = biological target: Sodium/hydrogen exchanger 1 (Rattus norvegicus) (UniProt P26431); assay: Ratio of cariporide IC50 to compound IC50 for NHE1 in Sprague-Dawley rat platelet-rich plasma by optical swelling assay
[3] = test system: Rattus norvegicus; assay: Cardioprotective activity against ischemic Sprague-Dawley rat heart assessed as reduction in infarct size at 0.25 mg/kg, iv treated 5 mins before left anterior descending coronary artery occlusion measured after 2 hrs of reperfusion by Evans staining; format: functional; parameters: scale not given: the % may be the effect or the level left
[4] = test system: Rattus norvegicus; assay: Cardioprotective activity against ischemic Sprague-Dawley rat heart assessed as serum creatine kinase level at 1 mg/kg, iv treated 5 mins before left anterior descending coronary artery occlusion measured after 2 hrs of reperfusion by Evans staining; format: functional
[5] = test system: Rattus norvegicus; assay: Cardioprotective activity against ischemic Sprague-Dawley rat heart assessed as reduction in infarct size at 0.5 mg/kg, iv treated 5 mins before left anterior descending coronary artery occlusion measured after 2 hrs of reperfusion by Evans staining; format: functional; parameters: scale not given: the % may be the effect or the level left
[6] = test system: Rattus norvegicus; assay: Cardioprotective activity against ischemic Sprague-Dawley rat heart assessed as serum creatine kinase level at 0.5 mg/kg, iv treated 5 mins before left anterior descending coronary artery occlusion measured after 2 hrs of reperfusion by Evans staining; format: functional
[7] = test system: Rattus norvegicus; assay: Cardioprotective activity against ischemic Sprague-Dawley rat heart assessed as reduction in infarct size at 1 mg/kg, iv treated 5 mins before left anterior descending coronary artery occlusion measured after 2 hrs of reperfusion by Evans staining; format: functional; parameters: scale not given: the % may be the effect or the level left
[8] = test system: Rattus norvegicus; assay: Cardioprotective activity against ischemic Sprague-Dawley rat heart assessed as serum creatine kinase level at 0.25 mg/kg, iv treated 5 mins before left anterior descending coronary artery occlusion measured after 2 hrs of reperfusion by Evans staining; format: functional

Sequence of Sodium/hydrogen exchanger 1 (P26431 whole entry): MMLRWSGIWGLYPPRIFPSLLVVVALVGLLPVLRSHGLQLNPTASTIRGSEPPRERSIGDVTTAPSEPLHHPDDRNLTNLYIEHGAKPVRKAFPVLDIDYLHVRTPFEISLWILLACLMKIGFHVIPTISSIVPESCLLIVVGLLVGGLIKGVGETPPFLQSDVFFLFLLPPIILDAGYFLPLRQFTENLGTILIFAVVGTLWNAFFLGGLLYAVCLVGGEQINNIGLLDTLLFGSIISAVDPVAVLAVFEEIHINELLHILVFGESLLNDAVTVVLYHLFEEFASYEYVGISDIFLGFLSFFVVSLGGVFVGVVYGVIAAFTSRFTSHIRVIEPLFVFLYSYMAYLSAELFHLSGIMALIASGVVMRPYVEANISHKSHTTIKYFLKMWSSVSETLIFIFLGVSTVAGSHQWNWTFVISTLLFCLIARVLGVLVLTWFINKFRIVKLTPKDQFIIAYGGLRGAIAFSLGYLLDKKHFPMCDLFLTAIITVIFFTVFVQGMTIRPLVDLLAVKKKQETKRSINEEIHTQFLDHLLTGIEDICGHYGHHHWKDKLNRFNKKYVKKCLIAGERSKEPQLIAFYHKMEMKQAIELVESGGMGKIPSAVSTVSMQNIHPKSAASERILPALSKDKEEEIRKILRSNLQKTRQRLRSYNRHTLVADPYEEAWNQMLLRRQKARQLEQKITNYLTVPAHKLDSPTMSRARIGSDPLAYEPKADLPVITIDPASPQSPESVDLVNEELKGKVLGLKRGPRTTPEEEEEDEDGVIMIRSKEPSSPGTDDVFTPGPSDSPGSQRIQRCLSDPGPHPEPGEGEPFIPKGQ
Sequence of Sodium/hydrogen exchanger 1 (Rattus norvegicus) (P26431 whole entry, the tested form may be a part): as the sequence (P26431 whole entry) above

Compound | IC50 [1] [nM] | also measured
NC(N)=N/N=C1\c2cc(F)ccc2CC1Sc1nc2cc([N+](=O)[O-])ccc2[nH]1 (configuration not stated) | 38 | –
NC(N)=N/N=C1\c2ccc(Cl)cc2CC1Sc1nc2ccccc2[nH]1 (configuration not stated) | 21.4 | –
COc1ccc2[nH]c(SC3Cc4ccc(F)cc4/C3=N\N=C(N)N)nc2c1 (configuration not stated) | 25.5 | –
COc1cc2c(c(OC)c1OC)CC(Sc1nc3cc([N+](=O)[O-])ccc3[nH]1)/C2=N/N=C(N)N (configuration not stated) | 31.5 | –
NC(N)=N/N=C1\c2cc(F)ccc2CC1Sc1nc2ccccc2s1 (configuration not stated) | 287 | –
NC(N)=N/N=C1\c2cc(Cl)ccc2CC1Sc1nc2ccccc2s1 (configuration not stated) | 34.6 | –
CC(C)c1ccc(C(=O)N=C(N)N)cc1S(C)(=O)=O [CARIPORIDE] | – | Activity [4]: 3.53 U/ml; Activity [7]: 45.74%
NC(N)=N/N=C1\c2cc(Cl)ccc2CC1Sc1nc2ccccc2[nH]1 (configuration not stated) | 326 | –
NC(N)=N/N=C1\c2cc(Cl)ccc2CC1Sc1nc2cc([N+](=O)[O-])ccc2[nH]1 (configuration not stated) | 38.9 | –
NC(N)=N/N=C1\c2cccc(Cl)c2CC1Sc1nc2ccccc2s1 (configuration not stated) | 20.3 | –
NC(N)=N/N=C1\c2cc(Cl)cc(Cl)c2CC1Sc1nc2ccccc2[nH]1 (configuration not stated) | 654 | –
COc1ccc2[nH]c(SC3Cc4ccccc4/C3=N\N=C(N)N)nc2c1 (configuration not stated) | 16.8 | –

The remaining compounds from weak to strong by IC50 [1], led by results:

IC50 [1] [nM] | Compound | also measured
12.2 | NC(N)=N/N=C1\c2ccc(Cl)cc2CC1Sc1nc2cc([N+](=O)[O-])ccc2[nH]1 (configuration not stated) | –
11.2 | COc1cc2c(cc1OC)/C(=N\N=C(N)N)C(Sc1nc3ccccc3[nH]1)C2 (configuration not stated) | –
10.8 | COc1cc2c(c(OC)c1OC)CC(Sc1nc3ccccc3[nH]1)/C2=N/N=C(N)N (configuration not stated) | –
2.44 | COc1cc2c(cc1OC)/C(=N\N=C(N)N)C(Sc1nc3ccccc3s1)C2 (configuration not stated) | –
2.34 | NC(N)=N/N=C1\c2ccc(Cl)cc2CC1Sc1nc2ccccc2s1 (configuration not stated) | –
1.98 | COc1cc2c(c(OC)c1OC)CC(Sc1nc3ccccc3s1)/C2=N/N=C(N)N (configuration not stated) | –
1.9 | COc1ccc2c(c1)/C(=N\N=C(N)N)C(Sc1nc3ccccc3s1)C2.Cl (configuration not stated) | Activity [4]: 3.38 U/ml; Activity [7]: 43.24%
1.74 | Cl.NC(N)=N/N=C1\c2ccccc2CC1Sc1nc2cc([N+](=O)[O-])ccc2[nH]1 (configuration not stated) | Activity [4]: 4.12 U/ml; Activity [7]: 49.18%
1.73 | Cl.Cl.NC(N)=N/N=C1\c2ccccc2CC1Sc1nc2ccccc2[nH]1 (configuration not stated) | Activity [4]: 3.02 U/ml; Activity [7]: 42.89%
1.17 | NC(N)=N/N=C1\c2ccc([N+](=O)[O-])cc2CC1Sc1nc2ccccc2[nH]1 (configuration not stated) | –
0.94 | Br.COc1ccc2[nH]c(SC3Cc4cc(Cl)ccc4/C3=N\N=C(N)N)nc2c1.Cl (configuration not stated) | Ratio IC50 [2]: 69; Activity [3]: 42.27%; Activity [4]: 2.82 U/ml; Activity [5]: 40.87%; Activity [6]: 3.34 U/ml; Activity [7]: 36.16%; Activity [8]: 3.72 U/ml
